Assays:
[1] = high concentrations (above 100 μM); cited from earlier work
IBD mice = test: DSS-induced inflammatory bowel disease (IBD) mouse model: colon IL-6 by ELISA and colon length; assay type: in vivo, C57BL6 mice; settings: for reduction of IL-6 levels within the colon: male mice, 2.5% DSS for 5 days, treatment from day 4 for four days, 2-CL-MGV-1 15 mg/kg, dexamethasone 0.75 mg/kg, vs DSS without treatment
Description: FIG. 1 includes a bar graph showing that interleukin (IL) 6 levels in the gut of IBD mice are reduced in response to 2-CL-MGV-1 treatment. Nine-weeks-old C57BL6 male mice were given 2.5% dextran sulfate sodium (DSS) in drinking water for 5 days. Naive mice were given water only. The treatments: 2-CL-MGV-1 and dexamethasone were given on day 4 for four days. […] ANOVA followed by Bonferroni's post-hoc test was performed. ***p<0.00001 compared to control.
FIG. 2 includes a bar graph showing that the treatment with 2-CL-MGV-1 reduces the shortening of IBD mice colon. Nine-weeks-old C57BL6 male mice were given 2.5% DSS in drinking water for 5 days. Naive mice were given water only. The treatments: 2-CL-MGV-1 and dexamethasone were given on day 4 for four days.
FIG. 4 includes a vertical bar graph showing that IL 6 levels in the gut of IBD mice are reduced in response to 2-CL-MGV-1 treatment. C57BL female mice aged of 8-10 weeks were given 2.5% DSS in their drinking water for 7 days. Vehicle group mice were given water only and DMSO injections on the 4th day for 4 days. DSS group received DSS with DMSO (as a vehicle) that were given on the 4th day for 4 days. The treatment group received 2-CL-MGV-1 (15 mg/kg) and DMSO as a vehicle were given on the 4th day for 4 days. […] ANOVA followed by Bonferroni's post-hoc test was performed. ***p<0.001 compared to control.
FIG. 5 includes a vertical bar graph showing that the treatment with 2-CL-MGV-1 reduces the shortening of IBD mice colon. C57BL female mice aged of 8-10 weeks were given 2.5% DSS in their drinking water for 7 days. Vehicle group mice were given water only and DMSO injections on the 4th day for 4 days. DSS group received DSS with DMSO (as a vehicle) that were given on the 4th day for 4 days. The treatment group received 2-CL-MGV-1 (15 mg/kg) and DMSO (as a vehicle) that were given on the 4th day for 4 days. […] ANOVA followed by Bonferroni's post-hoc test was performed. ***p<0.001 compared to control.
C57BL mice 8-10 weeks old were given 2.5% DSS in their drinking water for 7 days. On the fourth day, the mice were injected subcutaneously (S.C) with either DMSO or 2-CL-MGV-1 (30 μl) for four days. The mice were sacrificed on the eighth day of the experiment.
In the IBD experiment, 2-Cl-MGV-1 was injected subcutaneously for four days, three days after inflammation induction in the colon, using dextran sulfate sodium (DSS). On the following day, the mice were sacrificed, and the colon was removed. Colon lengths were measured, and cytokine levels were detected by ELISA.

[2] = test system: human retinal pigment epithelium (RPE)-19 cell line; test: In vitro AMD model: RPE-19 cells stimulated with TNF-α and INF-γ (TI), secreted pro-inflammatory mediators; assay type: cell-based; settings: RPE cells pretreated with compound, TNF-α and INF-γ stimulation
Source text: TNF-α and INF-γ stimulation (TI).
Next, the effect of 2-CL-MGV-1 was examined in an in vitro model of age-related macular degeneration (AMD). Human retinal pigment epithelium (RPE)-19 cell line stimulated with TNF-α and INF-γ (TI) are known to mimic AMD by complement activation and increased levels of circulating cytokines.

[3] = test system: lipopolysaccharide (LPS)-induced microglial activation; settings: recent studies of the inventors; cited from earlier work
[4] = female mice, 2.5% DSS for 7 days, 2-CL-MGV-1 15 mg/kg s.c. from 4th day for 4 days, vs DSS+vehicle (DMSO)

Compound | lethal effects [1] | reduction of IL-6 levels within the colon (IBD mice) [%] | decrease in IL-6 content in the colon (IBD mice; [4]) [%] | increase in colon length (IBD mice; [4]) [%] | colon shrinkage effect compared to dexamethasone (IBD mice; male DSS mice, 2-CL-MGV-1 15 mg/kg vs dexamethasone 0.75 mg/kg) | colon shrinkage (shortening) effect (IBD mice; male and female DSS mice, 2-CL-MGV-1 15 mg/kg for four days) | effect on IL-6 secretion relative to dexamethasone (DEX) treatment (IBD mice; murine IBD model, compared to DEX) | TI-induced secretion of IL-8 [2] | TI-induced secretion of complement C3 [2] | TI-induced secretion of complement C5 [2] | TI-induced secretion of reactive oxygen species (ROS) [2] | LPS-induced microglial activation [3]
CCC(C)N(C)C(=O)c1cc2ccccc2c(-c2ccccc2Cl)n1 (centres unmarked) [PK 11195, reference compound] | pronounced lethal effects | – | – | – | – | – | – | – | – | – | – | –
C[C@@H]1C[C@H]2[C@@H]3CCC4=CC(=O)C=C[C@]4(C)[C@@]3(F)[C@@H](O)C[C@]2(C)[C@@]1(O)C(=O)CO [dexamethasone, reference compound] | – | 20 | – | – | – | – | – | – | – | – | – | –
CN(C)C(=O)Oc1nc(-c2ccccc2Cl)nc2ccccc12 [2-Cl-MGV-1, 2-chlorophenyl quinazolin-4-yl dimethylcarbamate] | very few lethal effects | 75 | 64 | 26 | significantly more pronounced | alleviated the colon shrinkage effect | about 75% | significantly reduced | significantly reduced | significantly reduced | significantly reduced | inhibit

Source: patent US20260174761A1 (priority 2022, published 2026)
